Test results as given in patent publication US20100150845A1, “SYSTEM AND METHOD FOR THE DELIVERY OF A SANITIZING FOAM” (GREEN SOURCE AUTOMATED, LLC, priority 2008, published 2010).
Where two headings read alike, the source gives them in different places.

Assays:
[1] = Gas dissolved in teat dip solution under pressure; format: physicochemical; details: standard room temperature and 100 psi pressure
Description: The pressure vessel was constructed from a 0.1 m outside diameter piece of stainless steel tubing. The ends of the tube were capped with tri clover fittings to allow ease of access. The tri-clover caps were modified by adding two entry points on the proximal cap. One entry point on the proximal cap is to allow propellant/diffused gas to be introduced and the other is used to bleed off atmospheric air, when the tank was initially filled with propellant/diffused gas and to relieve pressure before refilling. On the distal cap of the tank two openings were added, each with tubing securely attached and each tube going to a manual shut off valve with a spray nozzle attached. A propellant/diffusion gas source with regulator was attached to the pressure vessel through the entry point on the proximal cap. The pressure vessel is filled about half full with teat dip solution, closed and the tank is pressurized with approximately 100 pounds per square inch (psi) of propellant/diffusion gas, except for the 50% carbon dioxide and 50% nitrous oxide propellant/diffusion gas which is set at 150 psi. The distance and angle from nozzle to teat is 0.15 m and 45 degrees from the horizontal (which were set to mimic a robotic tool used for some embodiments). […]

[2] = cited from earlier work

volumes of gas dissolved per volume of dip solution [1]	volumes of gas dissolved in one volume of the dip solution [1]	SMILES	vapor pressure ([2]; at 185° K.)	vapor pressure ([2]; at 290° K.)
approximately 4.5 volumes		O=C=O [CO2, Carbon dioxide]	approximately 0.45 bar	approximately 50 bar
	approximately four	[N-]=[N+]=O [Example N2O, nitrous oxide]	approximately 1 bar	approximately 50 bar
